Measured values: US10975049B2, “Nicotinyl alcohol ether derivative, preparation method therefor, and pharmaceutical composition and uses thereof” (Institute of Materia Medica, Chinese Academy of Medical …, priority 2016, dated 2021)
pIC50, pKd: −log10 of the molar value.

Assays:
[1] = test system: high metastatic melanoma B16F10; experiment: Subcutaneous xenograft model of high metastatic melanoma B16F10; format: in vivo, C57BL/6 or Bablc mice; conditions: for TGI % (tumor growth inhibition rate): tumor weight
Protocol: (§1) The method in subcutaneous xenograft tumor was as follows. The cultured specific tumor cells were digested and collected by centrifugation, and washed with sterile physiological saline for two times and then counted. The cell concentration was adjusted to 5×10^6/ml by physiological saline, and 0.2 ml of cell suspension was inoculated to the right armpit of C57BL/6 or Bablc mice. After inoculation, the animals were randomly divided into two groups in next day. Each group had 6-7 mice. After weighing, the animals were dosed once each day to monitor tumor size. When the tumor size reached to a certain size, the mice was weighed and blood was collected from mice orbit and then the mice were killed by removing the neck. The tumor tissue, thymus tissue and spleen tissue were collected and weighed respectively. Finally, the tumor growth inhibition rate was calculated, and the tumor growth inhibition rate was used to evaluate the level of anti-tumor effect.
(§2) In the study of the mechanism of the above models, the method of flow cytometry was adopted in measuring the total cell proportion of T cells of various types. The specific steps were as follows. The samples were treated at first. For blood tissue, the orbital blood was taken. The red cell lysate was used to remove the red blood cells, and then the PBS buffer was used for wash. After being washed, the cells were collected. For the tumor and spleen, the tissues were grinded with a homogenizer, and then diluted with PBS buffer, then filtered by 300 meshes of screen. After the number of cells was counted for each sample, 1×10^6 cells were added into EP tube and stained for flow antibody. After incubation for 1 h on ice, each sample was washed 2 times with PBS buffer. The cell population was analyzed by VERSE flow instrument of BD Company. The total number of cells in tumor tissue was 1×10^5 and the total number of cells in blood and spleen tissues was 1×10^4. The ratio of T cells to total number of cells was analyzed after flow cytometry.

[2] = test system: high metastatic melanoma B16F10; experiment: Lung metastasis model of high metastatic melanoma B16F10; format: in vivo, C57BL/6 mice; conditions: for Tumor number X ± SD: lung; for TGI % (tumor growth inhibition rate): tumor number
Protocol: The method in B16F10 lung metastasis model was as follows. The cultured B16F10 tumor cells were digested and centrifuged and washed for two times with sterile physiological saline and then counted. And the cell concentration was adjusted to 2.5×10^6/ml by physiological saline. 0.2 ml of cells were injected into the C57BL/6 mice through the tail vein, and the tumor cells will gather in the lung of the mice. After inoculation, the animals were randomly divided into two groups in next day. Each group had 6-7 mice. After weighing, the animals were dosed once each day. After 3 weeks, the mice were weighed and killed, the lung tissue was collected and weighed, and the number of lung tumors was counted after being fixed by the Bouin's Fluid. Finally, the tumor growth inhibition rate was calculated, and the tumor growth inhibition rate was used to evaluate the level of anti-tumor effect.
as §2

mouse colon cancer MC38 = experiment: Subcutaneous xenograft model of mouse colon cancer MC38; format: in vivo, C57BL/6 or Bablc mice
Protocol: as §1

mouse breast cancer EMT6 = experiment: Subcutaneous xenograft model of mouse breast cancer EMT6; format: in vivo, C57BL/6 or Bablc mice
Protocol: as §1

Lewis lung cancer = experiment: Mouse Lewis lung cancer hydrothorax model; format: in vivo, C57BL/6 mice; conditions: 10 mg
Protocol: The method in Lewis lung cancer hydrothorax model was as follows: The subcutaneous xenograft tumor of Lewis lung cancer was homogenized and washed for two times with sterile physiological saline, and the cell concentration was adjusted to 2.5×10^5/ml by physiological saline. 0.2 ml of cells were injected into the thoracic cavity of C57BL/6 mice. After inoculation, the animals were randomly divided into two groups in next day. Each group had 6-7 mice. After weighing, the animals were dosed once each day. Animals were sacrificed when the weight of the animals in the control group suddenly dropped. The liquid in thoracic cavity was extracted with syringe and the volume of fluid was recorded.

PD-L1 protein [3] = molecular target: T1, PD-L1 protein (Homo sapiens (Human), UniProt Q9NZQ7); experiment: Relieving the inhibition of IFNγ by ligand PD-L1 in human PBMC; format: cell-based; conditions: 72 h
T1 sequence (Q9NZQ7 19-290): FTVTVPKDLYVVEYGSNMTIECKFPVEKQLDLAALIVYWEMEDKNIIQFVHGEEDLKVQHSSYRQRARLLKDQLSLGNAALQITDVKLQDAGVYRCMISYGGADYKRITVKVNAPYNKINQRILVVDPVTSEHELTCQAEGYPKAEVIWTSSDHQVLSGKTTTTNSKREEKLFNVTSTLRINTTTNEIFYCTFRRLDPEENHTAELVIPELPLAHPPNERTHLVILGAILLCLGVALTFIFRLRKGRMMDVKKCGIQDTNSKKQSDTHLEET
Protocol: The expression level of IFNγ can reflect the proliferative activity of T lymphocytes. Using the extracted human PBMC (peripheral blood mononuclear cell), on the basis that T lymphocyte could be activated by the anti-CD3/anti-CD28 antibody, the ligand PD-L1 was added to the inhibit T lymphocyte, the example compounds' capacity of relieving the inhibition by the PD-L1 was investigated.
The specific procedure is as follows. DAKEWE human lymphocyte separation solution (DKW-KLSH-0100) was used to extract PBMC from human whole blood, and PBMC was inoculated into 96 well plate, with 3×10^5 cells per well. […] After 72 h, the expression level of IFNγ in the supernatant was detected by Cisbio IFNγ test kit.

PD-L1 protein [4] = molecular target: T1, PD-L1 protein; experiment: Interaction with PD-L1 protein tested by Biacore (SPR); format: binding
Text: Surface plasmon is a kind of electromagnetic wave on the surface of metal, produced by the interaction of photon and electron in free vibration. Surface plasmon resonance (SPR) is an optical phenomenon that occurs on the surface of two kinds of media, which can be induced by photon or electron. The phenomenon of total reflection of light from light dense medium into light scattering medium will form evanescent wave into light scattering medium. When the total reflected evanescent wave meets the plasma wave on the metal surface, the resonance may occur, and the energy of reflected light decreases and the resonance peak appears on the reflected light energy spectrum. This resonance is called the surface plasmon resonance. The incident angle of the surface plasmon resonance is called the SPR angle. The SPR biosensor provides a sensitive, real-time, non-label detection technique for monitoring the interaction of molecules. The sensor detects the change of the SPR angle, and SPR is also related to the refractive index of the metal surface. When an analyte is bond on the surface of the chip, it leads to the change of the refractive index of the chip surface, which leads to the change of the SPR angle. […] In the interaction analysis, the change of SPR angle is recorded on the sensor map in real time. […]

Compound: O=C([O-])[C@H](CO)NCc1cc(Cl)c(OCc2cccc(-c3ccccc3)c2Br)cc1OCc1cccnc1.[Na+] [Example 4 sodium salt, (S)-Sodium N-(4-(2-bromo-3-phenylbenzyloxy)-5-chloro-2-(pyridin-3-yl-methyleneoxy)benzyl) serinate]
- Tumorweight(g) X ± SD ([1]; 15 mg/kg): 0.93 ± 0.89 g
- Body weight (g) Mean ± SD Begin ([1]; 15 mg/kg): 20.3 ± 0.4 g
- Body weight (g) Mean ± SD End ([1]; 15 mg/kg): 21.8 ± 2.1 g
- TGI % (tumor growth inhibition rate) ([1]; 15 mg/kg): 64.11%
- Tumorweight(g) X ± SD ([1]; 45 mg/kg): 2.57 ± 0.85 g
- Body weight (g) Mean ± SD Begin ([1]; 45 mg/kg): 20.4 ± 0.9 g
- Body weight (g) Mean ± SD End ([1]; 45 mg/kg): 23.8 ± 1.4 g
- TGI % (tumor growth inhibition rate) ([1]; 45 mg/kg): 0.23%
- proportion of lymphocytes in the spleen samples ([1]; result in words): increase
- proportion of tumor-infiltrating lymphocytes ([1]; result in words): increase
- CD4+ (%) T lymphocytes in spleen ([1]; spleen, 15 mg): 27.0 ± 1.8%
- CD8+ (%) T lymphocytes in spleen ([1]; spleen, 15 mg): 13.6 ± 1.8%
- CD3+ (%) tumor-infiltrating T lymphocytes ([1]; tumor, 15 mg): 13.3 ± 6.9%
- CD4+ (%) tumor-infiltrating T lymphocytes ([1]; tumor, 15 mg): 7.2 ± 3.4%
- CD8+ (%) tumor-infiltrating T lymphocytes ([1]; tumor, 15 mg): 3.9 ± 1.4%
- number of lung metastases ([2]; 15 mg/kg dose, result in words): significantly inhibit
- Body weight (g) Mean ± SD Begin ([2]; 15 mg/kg): 20.1 ± 0.9 g
- Body weight (g) Mean ± SD End ([2]; 15 mg/kg): 21.5 ± 1.2 g
- Tumor number X ± SD ([2]; 15 mg/kg): 12 ± 3
- TGI % (tumor growth inhibition rate) ([2]; 15 mg/kg): 42.3%
- Body weight (g) Mean ± SD Begin ([2]; 45 mg/kg): 20.3 ± 0.6 g
- Body weight (g) Mean ± SD End ([2]; 45 mg/kg): 21.4 ± 0.3 g
- Tumor number X ± SD ([2]; 45 mg/kg): 19 ± 15
- TGI % (tumor growth inhibition rate) ([2]; 45 mg/kg): 9.5%
- CD3+ percentage of T lymphocyte in mouse blood ([2]; 15 mg): 29.0 ± 3.7%
- CD4+ percentage of T lymphocyte in mouse blood ([2]; 15 mg): 17.8 ± 2.4%
- CD8+ percentage of T lymphocyte in mouse blood ([2]; 15 mg): 9.6 ± 0.8%
- CD3+ percentage of T lymphocyte in mouse blood ([2]; 45 mg): 23.2 ± 3.6%
- CD4+ percentage of T lymphocyte in mouse blood ([2]; 45 mg): 14.7 ± 2.5%
- CD8+ percentage of T lymphocyte in mouse blood ([2]; 45 mg): 7.6 ± 1.3%
- antitumor effect in combination with Cyclophosphamide (CTX) (mouse colon cancer MC38; result in words): synergistic antitumor effect
- inhibition effect on subcutaneous xenograft of MC38 (mouse colon cancer MC38; result in words): significant inhibition effect
- TGI % (tumor growth inhibition rate) (mouse breast cancer EMT6; 1.5 mg/kg): 13.1%
- Tumorweight(g) X ± SD (mouse breast cancer EMT6; 1.5 mg/kg): 1.5 ± 0.61 g
- Body weight (g) Mean ± SD Begin (mouse breast cancer EMT6; 1.5 mg/kg): 18.4 ± 0.9 g
- Body weight (g) Mean ± SD End (mouse breast cancer EMT6; 1.5 mg/kg): 22.0 ± 1.6 g
- TGI % (tumor growth inhibition rate) (mouse breast cancer EMT6; 5 mg/kg): 20.2%
- Tumorweight(g) X ± SD (mouse breast cancer EMT6; 5 mg/kg): 1.37 ± 0.23 g
- Body weight (g) Mean ± SD Begin (mouse breast cancer EMT6; 5 mg/kg): 18.4 ± 0.4 g
- Body weight (g) Mean ± SD End (mouse breast cancer EMT6; 5 mg/kg): 21.0 ± 1.6 g
- TGI % (tumor growth inhibition rate) (mouse breast cancer EMT6; 10 mg/kg): 22.3%
- Tumorweight(g) X ± SD (mouse breast cancer EMT6; 10 mg/kg): 1.34 ± 0.34 g
- Body weight (g) Mean ± SD Begin (mouse breast cancer EMT6; 10 mg/kg): 18.4 ± 0.6 g
- Body weight (g) Mean ± SD End (mouse breast cancer EMT6; 10 mg/kg): 21.6 ± 1.3 g
- TGI % (tumor growth inhibition rate) (mouse breast cancer EMT6; 15 mg/kg): 14.7%
- Tumorweight(g) X ± SD (mouse breast cancer EMT6; 15 mg/kg): 1.47 ± 0.65 g
- Body weight (g) Mean ± SD Begin (mouse breast cancer EMT6; 15 mg/kg): 18.5 ± 0.4 g
- Body weight (g) Mean ± SD End (mouse breast cancer EMT6; 15 mg/kg): 22.0 ± 1.1 g
- inhibition effect on mouse breast cancer EMT6 (mouse breast cancer EMT6; dose of 10 mg): 20%
- inhibition effect on mouse breast cancer EMT6 (mouse breast cancer EMT6; dose of 15 mg): 22%
- hydrothorax incidence rate (Lewis lung cancer): 33%
- hydrothorax volume (mean) (Lewis lung cancer): 0.2 mL
- hydrothorax incidence rate (Lewis lung cancer; listed as sodium salt of Example 4 compound): 33%

Compound: O=C(O)[C@H](CO)NCc1cc(Cl)c(OCc2cccc(-c3ccccc3)c2Br)cc1OCc1cccnc1 [Example 4, (S)—N-(4-(2-bromo-3-phenylbenzyloxy)-5-chloro-2-(pyridin-3-yl-methyleneoxy)benzyl) serine]
- percentage of lymphocyte in mouse blood ([2]; result in words): increase
- TGI % (tumor growth inhibition rate) (mouse colon cancer MC38; 2.5 mg/kg): 102.3%
- Tumor weight(g) Mean ± SD (mouse colon cancer MC38; 2.5 mg/kg): 3.25 ± 0.61 g
- Body weight (g) Mean ± SD Begin (mouse colon cancer MC38; 2.5 mg/kg, begin): 18.0 ± 0.4 g
- Body weight (g) Mean ± SD End (mouse colon cancer MC38; 2.5 mg/kg): 21.9 ± 0.7 g
- TGI % (tumor growth inhibition rate) (mouse colon cancer MC38; 5 mg/kg): 12.7%
- Tumor weight(g) Mean ± SD (mouse colon cancer MC38; 5 mg/kg): 2.78 ± 0.44 g
- Body weight (g) Mean ± SD End (mouse colon cancer MC38; 5 mg/kg): 22.8 ± 0.6 g
- TGI % (tumor growth inhibition rate) (mouse colon cancer MC38; 10 mg/kg): 32.7%
- Tumor weight(g) Mean ± SD (mouse colon cancer MC38; 10 mg/kg): 2.14 ± 0.78 g
- Body weight (g) Mean ± SD End (mouse colon cancer MC38; 10 mg/kg): 21.5 ± 0.8 g
- TGI % (tumor growth inhibition rate) (mouse colon cancer MC38; 20 mg/kg): 41.2%
- Tumor weight(g) Mean ± SD (mouse colon cancer MC38; 20 mg/kg): 1.87 ± 0.90 g
- Body weight (g) Mean ± SD End (mouse colon cancer MC38; 20 mg/kg): 20.9 ± 1.1 g
- pIC50 (PD-L1 protein [3]): 9.74
- relief of the inhibition of PD-L1 to expression level of IFNγ (PD-L1 protein [3]; at 10 nM): partially relieved
- kd (PD-L1 protein [4]; PBS-P+, pH7.4, 0.01% DMSO, NTA chip): 2.815e-05 s⁻¹
- pKd (PD-L1 protein [4]; unit inferred, read-out: affinity kD value): 10.69
